{
  "source": "ChEMBL document CHEMBL1149706",
  "about": "“Discovering benzamide derivatives as glycogen phosphorylase inhibitors and their binding site at the enzyme” (Bioorg Med Chem, 2007)",
  "data": [
    {"assay": "Inhibition of rabbit muscle GPa", "set-up": "species or system Oryctolagus cuniculus", "units": {"IC50": "µM"}, "values": [
      {"molecule": "O=C(Nc1nncs1)c1ccc(C(=O)Nc2nncs2)cc1", "IC50": 269},
      {"molecule": "COc1cccc(NC(=O)c2cc(Sc3nccn3C)c(F)cc2N)c1", "IC50": 166},
      {"molecule": "O=C(Nc1ccccn1)c1cccc(C(=O)Nc2ccccn2)c1", "IC50": 57.6},
      {"molecule": "O=C(Nc1ccccn1)c1cccc(C(=O)Nc2ccccn2)n1", "IC50": 425},
      {"molecule": "Cn1ccnc1Sc1cc(C(=O)Nc2ccccc2)c(N)cc1F", "IC50": 215},
      {"molecule": "Cn1ccnc1Sc1cc(C(=O)Nc2ccc(C#N)cc2)c(N)cc1F", "IC50": 96.1},
      {"molecule": "Cn1ccnc1Sc1cc(C(=O)Nc2cccc(F)c2)c(N)cc1F", "IC50": 30.9},
      {"molecule": "Cn1ccnc1Sc1cc(C(=O)Nc2cccc(C(F)(F)F)c2)c(N)cc1F", "IC50": 8.95},
      {"molecule": "COc1ccccc1NC(=O)c1cc(Sc2nccn2C)c(F)cc1N", "IC50": 41.8},
      {"molecule": "O=C(Nc1nccs1)c1ccc(C(=O)Nc2nccs2)cc1", "IC50": 337},
      {"molecule": "O=C(CN1CCN(c2ccccc2F)CC1)Nc1cccc(C(F)(F)F)c1", "IC50": 78.5},
      {"molecule": "COc1ccccc1N1CCN(CC(=O)Nc2cccc(C(F)(F)F)c2)CC1", "IC50": 46.1},
      {"molecule": "Cn1ccnc1Sc1cc(C(=O)NCc2ccccc2)c(N)cc1F", "IC50": 153},
      {"molecule": "O=C(CN1CCN(c2ccccc2)CC1)Nc1nccs1", "IC50": 96.9},
      {"molecule": "COc1ccc(NC(=O)c2cc(Sc3nccn3C)c(F)cc2N)cc1", "IC50": 107},
      {"molecule": "Cn1ccnc1Sc1cc(C(=O)Nc2ccccc2N)c(N)cc1F", "IC50": 95.3},
      {"molecule": "Cn1ccnc1Sc1cc(C(=O)Nc2cccc(N)c2)c(N)cc1F", "IC50": 2.68},
      {"molecule": "Cn1ccnc1Sc1cc(C(=O)Nc2cccc(C#N)c2)c(N)cc1F", "IC50": 9.87},
      {"molecule": "O=C(CN1CCN(c2ccccc2F)CC1)Nc1nccs1", "IC50": 35.8},
      {"molecule": "Cc1ccc(NC(=O)c2cc(Sc3nccn3C)c(F)cc2N)cc1", "IC50": 70.1},
      {"molecule": "Cn1ccnc1Sc1cc(C(=O)Nc2ccccc2C#N)c(N)cc1F", "IC50": 75.9},
      {"molecule": "Cn1ccnc1Sc1cc(C(=O)Nc2ccc(N)cc2)c(N)cc1F", "IC50": 91.1}
    ]}
  ]
}
